Test results reported in the supplement of paper PMC8671470.

Key:
Conditions in all cases: 72 h
HEL [1] = tested on: HEL
Outline: (§1)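 Fifteen myeloid leukaemia cell lines were seeded in RPMI 1640 at densities titrated to the linear growth range and placed in 384-well plates with acoustically pre-printed compounds at five tenfold doses from 1 to 10,000 nM, in duplicate. After 72 h at 37 °C with 5% CO2, luminescent ATP viability was normalised to vehicle and to a positive control at 10 µM, and curves were fitted with a four-parameter log-logistic model. The IC50 was obtained from these fits.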

NOMO-1 [2] = tested on: NOMO-1
Outline: as §1

MV4-11 [3] = tested on: MV4-11
Outline: as §1

ML-2 [4] = tested on: ML-2
Outline: as §1

SHI-1 [5] = tested on: SHI-1
Outline: as §1

LAMA-84 = tested on: LAMA-84
Outline: as §1

K-562 [6] = tested on: K-562
Outline: as §1

KG-1 [7] = tested on: KG-1
Outline: as §1

KCL-22 [8] = tested on: KCL-22
Outline: as §1

KU-812 [9] = tested on: KU-812
Outline: as §1

MOLM-13 [10] = tested on: MOLM-13
Outline: as §1

Mono-Mac-6 [11] = tested on: Mono-Mac-6
Outline: as §1

THP-1 [12] = tested on: THP-1
Outline: as §1

HL-60 [13] = tested on: HL-60
Outline: as §1

BV-173 [14] = tested on: BV-173
Outline: as §1

HL-60 [15] = assay: area under dose-response curve (viability, 1 nM-10 uM) (fraction (0-1)); higher = more sensitive
Outline: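 In 384-well plates, the full library was rescreened in duplicate on HL-60 cells in RPMI 1640 with 10% FBS, at 1–10,000 nM in five tenfold concentrations, for 72 h at 37 °C, 5% CO2. Each run also held DMSO or 100 nM of one of three metabolic inhibitors. Viability was measured by CellTiter-Glo and normalised to DMSO wells and to wells with proteasome inhibitor, present at 10 μM. Any area under the curve comes from four-parameter log-logistic fitting with drc and PharmacoGx.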

HEL [16] = assay: cell viability (% survival relative to DMSO control, bortezomib = 0%); higher = less cytotoxic
Outline: (§2)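 Seeding density for each of the 10 AML and 5 CML cell lines was titrated to the linear growth range. Cells went into 384-well plates pre-printed in duplicate with compounds at 1, 10, 100, 1000 or 10000 nM and were held for 72 h at 37 °C with 5% CO2. CellTiter-Glo luminescence then provided the readout. Percent survival is expressed relative to vehicle at 100% and a 10 µM positive control at 0%, averaged over duplicates.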

NOMO-1 [17] = assay: as above
Outline: as §2

MV4-11 [18] = assay: as above
Outline: as §2

ML-2 [19] = assay: as above
Outline: as §2

SHI-1 [20] = assay: as above
Outline: as §2

K-562 [21] = assay: as above
Outline: as §2

KG-1 [22] = assay: as above
Outline: as §2

KCL-22 [23] = assay: as above
Outline: as §2

KU-812 [24] = assay: as above
Outline: as §2

MOLM-13 [25] = assay: as above
Outline: as §2

Mono-Mac-6 [26] = assay: as above
Outline: as §2

THP-1 [27] = assay: as above
Outline: as §2

HL-60 [28] = assay: as above
Outline: as §2

BV-173 [29] = assay: as above
Outline: as §2

Cc1ccccc1C(C(=O)NC1CCCCC1)N(C(=O)Cn1ccnc1C)c1cccc(F)c1 (stereo not drawn) [AGI-5198]
Conditions	IC50 (cell viability) [µM]
BV-173 [14]	> 10
HEL [1]	> 10
HL-60 [13]	> 10
K-562 [6]	> 10
KCL-22 [8]	> 10
KG-1 [7]	> 10
KU-812 [9]	> 10
LAMA-84	> 10
ML-2 [4]	> 10
MOLM-13 [10]	> 10
MV4-11 [3]	> 10
Mono-Mac-6 [11]	> 10
NOMO-1 [2]	> 10
SHI-1 [5]	> 10
THP-1 [12]	> 10

Conditions	area under dose-response curve, co-treatment: AZD3965 100 nM	area under dose-response curve, co-treatment: DMSO vehicle	area under dose-response curve, co-treatment: GSK2194069 100 nM	area under dose-response curve, co-treatment: pictilisib 100 nM	cell viability, 1 nM [%]	cell viability, 10 nM [%]	cell viability, 100 nM [%]	cell viability, 1000 nM [%]	cell viability, 10000 nM [%]
BV-173 [29]	–	–	–	–	88.3	103	107	104	95.2
HEL [16]	–	–	–	–	95.4	104	106	99.4	101
HL-60 [15]	< 0.0301	< 0.0301	< 0.0301	< 0.0301	–	–	–	–	–
HL-60 [28]	–	–	–	–	107	106	99.5	102	116
K-562 [21]	–	–	–	–	98.5	101	103	96.5	104
KCL-22 [23]	–	–	–	–	101	114	132	111	104
KG-1 [22]	–	–	–	–	102	100	128	94.9	94.5
KU-812 [24]	–	–	–	–	97.7	105	109	92.1	103
ML-2 [19]	–	–	–	–	96.8	106	122	103	95.1
MOLM-13 [25]	–	–	–	–	87	124	108	80	118
MV4-11 [18]	–	–	–	–	94	102	91.5	91.4	115
Mono-Mac-6 [26]	–	–	–	–	92.8	107	100	104	99
NOMO-1 [17]	–	–	–	–	96	103	107	100	102
SHI-1 [20]	–	–	–	–	94.9	92.7	107	96.2	99.1
THP-1 [27]	–	–	–	–	96.9	100	107	101	100

C[C@H](NC(=O)c1sccc1OCc1ccc(Cl)cc1)c1ccccc1
Conditions	IC50 (cell viability) [µM]
BV-173 [14]	> 10
HEL [1]	> 10
HL-60 [13]	0.751
K-562 [6]	> 10
KCL-22 [8]	> 10
KG-1 [7]	> 10
KU-812 [9]	> 10
LAMA-84	> 10
ML-2 [4]	> 10
MOLM-13 [10]	> 10
MV4-11 [3]	> 10
Mono-Mac-6 [11]	> 10
NOMO-1 [2]	> 10
SHI-1 [5]	> 10
THP-1 [12]	> 10

Conditions	area under dose-response curve, co-treatment: AZD3965 100 nM	area under dose-response curve, co-treatment: DMSO vehicle	area under dose-response curve, co-treatment: GSK2194069 100 nM	area under dose-response curve, co-treatment: pictilisib 100 nM	cell viability, 1 nM [%]	cell viability, 10 nM [%]	cell viability, 100 nM [%]	cell viability, 1000 nM [%]	cell viability, 10000 nM [%]
BV-173 [29]	–	–	–	–	93.5	99.7	89.2	90.1	50.4
HEL [16]	–	–	–	–	98.3	101	97.6	97.5	91.4
HL-60 [15]	< 0.0301	< 0.0301	< 0.0301	< 0.0301	–	–	–	–	–
HL-60 [28]	–	–	–	–	90.6	84.1	106	35.7	56
K-562 [21]	–	–	–	–	96.4	93.3	87.6	97.2	62
KCL-22 [23]	–	–	–	–	111	106	97.8	84	65.6
KG-1 [22]	–	–	–	–	94	103	92.1	91.9	61.4
KU-812 [24]	–	–	–	–	84.6	96.1	94.8	95.8	59.8
ML-2 [19]	–	–	–	–	104	108	98.8	106	72.4
MOLM-13 [25]	–	–	–	–	93.5	95.7	96.8	109	102
MV4-11 [18]	–	–	–	–	89.3	102	83	96.1	59.9
Mono-Mac-6 [26]	–	–	–	–	88.8	102	102	98.3	88.8
NOMO-1 [17]	–	–	–	–	96.6	108	99.3	102	101
SHI-1 [20]	–	–	–	–	82.5	98.7	97.9	95.4	75.7
THP-1 [27]	–	–	–	–	101	103	99	103	92.1
